In US10035778B2, “Meta-azacyclic amino benzoic acid derivatives as pan integrin antagonists” (Saint Louis University, priority 2015, dated 2018):

Experiments:
Format in all cases: binding
[1] = target: Recombinant human integrin α5β1 (Homo sapiens (Human), UniProt P05556+P08648); assay: Solid Phase Receptor Assay (SPRA) for α5β1 function; conditions: fibronectin-coated plate
Description: 1. Solid Phase Receptor Assay (SPRA) for α5β1 Function
Purified human fibronectin (R&D Systems, 1918-FN) diluted to 2 μg/mL in TBS+ buffer (25 mM Tris pH 7.4, 137 mM NaCl, 2.7 mM KCl, 1 mM CaCl2, 1 mM MgCl2, 1 mM MnCl2) was added to wells (50 μL/well) of a 96-well half-well transparent microtiter plate (Greiner 675061) and incubated overnight at 4° C. Wells were washed 3 times with 150 μL TBS+ and 150 μL of blocking buffer (TBS+ with 1% bovine serum albumin, Sigma A7906) were added. The plate was incubated for 1 hr at 37° C. and then washed 3× with TBS+ buffer. Recombinant human integrin α5β1 (R&D Systems, 3230-A5) was diluted to 0.1 μg/mL in TBS+/0.1% bovine serum albumin. Compounds were diluted 1:100 into the integrin solution and then 50 μL added to empty wells of the washed fibronectin-coated plate according to a standard template with each sample repeated in triplicate. After incubation for two hours at room temperature, the plate was washed 3× with 150 μL of TBS+ buffer. To each well, 50 μl of biotinylated anti-α5 antibody (R&D Systems, BAF1864) at 0.5 μg/mL in TBS+/0.1% BSA were added and the plate covered and incubated for 1 hr at room temperature. After washing the plate 3× with 150 μL of TBS+ buffer, 50 μL of streptavidin-conjugated horseradish peroxidase (R&D Systems, DY998) diluted in TBS+ blocking buffer were added to the wells and the plate incubated for 20 min at room temperature. The plate was washed 3× with TBS+ buffer followed by 50 μL of room temperature TMB substrate (Sigma, T444) added to each well and the plate incubated for 20 min at room temperature. Plates were read by colorimetric detection at 650 nm wavelength using a Tecan Safire II plate reader. Concentration-response curves were constructed by non-linear regression (best fit) analysis, and IC50 values were calculated for each compound.

[2] = target: Recombinant human integrin α8β1 (Homo sapiens (Human), UniProt P05556+P53708); assay: Solid Phase Receptor Assay (SPRA) for α8β1 function; conditions: mouse nephronectin-coated plate
Description: 7. Solid Phase Receptor Assay (SPRA) for α8β1 Function
Recombinant mouse nephronectin protein (R&D Systems, Inc, 4298-NP) diluted to 1 μg/mL in TBS+ buffer (25 mM Tris pH 7.4, 137 mM NaCl, 2.7 mM KCl, 1 mM CaCl2, 1 mM MgCl2, 1 mM MnCl2) was added to wells (50 μl/well) of a 96-well half-well transparent microtiter plate (Greiner 675061), and incubated overnight at 4° C. Wells were washed 3 times with 150 μL TBS+ and 150 μL of blocking buffer (TBS+ with 1% bovine serum albumin, Sigma A7906) were added. The plate was incubated for 1 hr at 37° C. and then washed 3× with TBS+. Recombinant human integrin α8β1 (R&D Systems, pre-launch) was diluted to 0.25 μg/mL in TBS+/0.1% bovine serum albumin. Compounds were diluted 1:100 into the integrin solution and 50 μL added to empty wells of the washed nephronectin-coated plate according to a standard template with each sample repeated in triplicate. After incubation for two hours at room temperature, the plate was washed 3× with 150 μL of TBS+. To each well, 50 μL of biotinylated anti-β antibody (R&D Systems, BAF1778) at 0.5 μg/mL in TBS+/0.1% BSA were added and the plate was covered and incubated for 1 hr at room temperature. After washing the plate 3× with 150 μL of TBS+ buffer, 50 μL of streptavidin-conjugated horseradish peroxidase (R&D Systems, DY998) diluted in TBS+ blocking buffer were added to the wells and the plate incubated for 20 min at room temperature. The plate was washed 3× with TBS+ followed by 50 μL of TMB substrate (Sigma T4444) added to each well and the plate incubated for 20 min at room temperature. Plates were read by colorimetric detection at 650 nm wavelength using a Tecan Safire II plate reader. Concentration-response curves were constructed by non-linear regression (best fit) analysis, and IC50 values were calculated for each compound.

[3] = target: Recombinant human integrin αvβ6 (Homo sapiens (Human), UniProt P06756+P18564); assay: Solid Phase Receptor Assay (SPRA) for αvβ6 function; conditions: LAP-coated plate
Description: 5. Solid Phase Receptor Assay (SPRA) for αvβ6 Function
Recombinant human LAP (R&D Systems, 246-LP) diluted to 0.25 μg/mL in TBS+ buffer (25 mM Tris pH 7.4, 137 mM NaCl, 2.7 mM KCl, 1 mM CaCl2, 1 mM MgCl2, 1 mM MnCl2) was added to wells (50 μL/well) of a 96-well half-well transparent microtiter plate (Greiner 675061) and incubated overnight at 4° C. Wells were washed 3 times with 150 μL TBS+, and 150 μL of blocking buffer (TBS+ with 1% bovine serum albumin, Sigma A7906) were added. The plate was incubated for 1 hr at 37° C., and then washed 3× with TBS+ buffer. Recombinant human integrin αvβ6 (R&D Systems, 3817-AV) was diluted to 0.1 μg/mL in TBS+/0.1% bovine serum albumin. Compounds were diluted 1:100 into the integrin solution and then 50 μL added to empty wells of the washed LAP-coated plate according to a standard template with each sample repeated in triplicate. After incubation for two hours at room temperature, the plate was washed 3× with 150 μL of TBS+ buffer. To each well, 50 μL of biotinylated anti-αv antibody (R&D Systems, BAF1219) at 0.5 μg/mL in TBS+/0.1% BSA were added and the plate was covered and incubated for 1 hr at room temperature. After washing the plate 3× with 150 μL of TBS+ buffer, 50 μL of streptavidin-conjugated horseradish peroxidase (R&D Systems, DY998) diluted in TBS+ blocking buffer were added to the wells and the plate incubated for 20 min at room temperature. The plate was washed 3× with TBS+ buffer followed by 50 μL of TMB substrate (Sigma T4444) added to each well and the plate incubated for 20 min at room temperature. Plates were read by colorimetric detection at 650 nm wavelength using a Tecan Safire II plate reader. Concentration-response curves were constructed by non-linear regression (best fit) analysis, and IC50 values were calculated for each compound.

Chain of Recombinant human integrin α5β1 (P08648 42-995): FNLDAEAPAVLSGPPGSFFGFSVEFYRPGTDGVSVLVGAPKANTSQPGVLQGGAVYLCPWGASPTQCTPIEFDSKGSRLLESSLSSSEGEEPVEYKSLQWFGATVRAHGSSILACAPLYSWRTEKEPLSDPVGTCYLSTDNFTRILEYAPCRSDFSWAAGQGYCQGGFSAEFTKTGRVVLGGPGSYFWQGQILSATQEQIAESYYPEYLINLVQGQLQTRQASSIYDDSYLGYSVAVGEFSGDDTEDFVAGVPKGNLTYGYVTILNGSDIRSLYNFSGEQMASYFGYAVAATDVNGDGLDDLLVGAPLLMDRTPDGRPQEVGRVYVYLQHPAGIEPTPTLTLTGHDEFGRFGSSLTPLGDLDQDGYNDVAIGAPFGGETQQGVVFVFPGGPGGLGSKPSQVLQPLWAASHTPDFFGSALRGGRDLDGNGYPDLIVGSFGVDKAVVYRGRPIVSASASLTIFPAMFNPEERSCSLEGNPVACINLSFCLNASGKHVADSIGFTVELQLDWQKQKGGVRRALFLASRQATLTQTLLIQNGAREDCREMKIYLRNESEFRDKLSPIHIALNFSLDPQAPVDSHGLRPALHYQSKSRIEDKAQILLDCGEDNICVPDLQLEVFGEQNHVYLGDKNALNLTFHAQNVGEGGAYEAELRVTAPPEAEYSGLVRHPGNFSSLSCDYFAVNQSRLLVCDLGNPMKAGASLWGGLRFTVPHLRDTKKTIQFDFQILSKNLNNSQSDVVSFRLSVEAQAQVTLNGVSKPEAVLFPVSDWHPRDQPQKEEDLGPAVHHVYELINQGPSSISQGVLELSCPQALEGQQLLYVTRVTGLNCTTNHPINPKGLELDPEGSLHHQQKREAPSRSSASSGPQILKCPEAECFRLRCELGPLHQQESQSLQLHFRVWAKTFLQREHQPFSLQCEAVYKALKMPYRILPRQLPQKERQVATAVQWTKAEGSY
Chain of Recombinant human integrin α5β1 (P05556 21-728): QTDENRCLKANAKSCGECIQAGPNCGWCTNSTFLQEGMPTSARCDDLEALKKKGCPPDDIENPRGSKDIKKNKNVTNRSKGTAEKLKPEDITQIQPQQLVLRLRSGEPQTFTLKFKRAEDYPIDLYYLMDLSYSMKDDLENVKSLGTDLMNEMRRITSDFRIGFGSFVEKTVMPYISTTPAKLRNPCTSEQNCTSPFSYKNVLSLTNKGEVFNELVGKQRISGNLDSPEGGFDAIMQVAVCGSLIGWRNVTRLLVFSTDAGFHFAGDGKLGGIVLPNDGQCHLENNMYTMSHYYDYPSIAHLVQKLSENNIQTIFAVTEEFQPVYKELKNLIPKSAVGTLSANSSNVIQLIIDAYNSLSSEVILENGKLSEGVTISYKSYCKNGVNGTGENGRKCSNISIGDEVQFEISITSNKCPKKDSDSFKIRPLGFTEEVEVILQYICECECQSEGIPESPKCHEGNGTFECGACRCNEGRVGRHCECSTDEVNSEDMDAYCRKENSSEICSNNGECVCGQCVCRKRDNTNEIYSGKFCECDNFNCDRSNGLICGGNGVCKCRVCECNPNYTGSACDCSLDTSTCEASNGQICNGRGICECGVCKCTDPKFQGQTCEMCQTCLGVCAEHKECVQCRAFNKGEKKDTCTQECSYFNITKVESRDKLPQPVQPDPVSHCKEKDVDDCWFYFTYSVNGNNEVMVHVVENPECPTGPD
Chain of Recombinant human integrin α8β1 (P53708 39-1012): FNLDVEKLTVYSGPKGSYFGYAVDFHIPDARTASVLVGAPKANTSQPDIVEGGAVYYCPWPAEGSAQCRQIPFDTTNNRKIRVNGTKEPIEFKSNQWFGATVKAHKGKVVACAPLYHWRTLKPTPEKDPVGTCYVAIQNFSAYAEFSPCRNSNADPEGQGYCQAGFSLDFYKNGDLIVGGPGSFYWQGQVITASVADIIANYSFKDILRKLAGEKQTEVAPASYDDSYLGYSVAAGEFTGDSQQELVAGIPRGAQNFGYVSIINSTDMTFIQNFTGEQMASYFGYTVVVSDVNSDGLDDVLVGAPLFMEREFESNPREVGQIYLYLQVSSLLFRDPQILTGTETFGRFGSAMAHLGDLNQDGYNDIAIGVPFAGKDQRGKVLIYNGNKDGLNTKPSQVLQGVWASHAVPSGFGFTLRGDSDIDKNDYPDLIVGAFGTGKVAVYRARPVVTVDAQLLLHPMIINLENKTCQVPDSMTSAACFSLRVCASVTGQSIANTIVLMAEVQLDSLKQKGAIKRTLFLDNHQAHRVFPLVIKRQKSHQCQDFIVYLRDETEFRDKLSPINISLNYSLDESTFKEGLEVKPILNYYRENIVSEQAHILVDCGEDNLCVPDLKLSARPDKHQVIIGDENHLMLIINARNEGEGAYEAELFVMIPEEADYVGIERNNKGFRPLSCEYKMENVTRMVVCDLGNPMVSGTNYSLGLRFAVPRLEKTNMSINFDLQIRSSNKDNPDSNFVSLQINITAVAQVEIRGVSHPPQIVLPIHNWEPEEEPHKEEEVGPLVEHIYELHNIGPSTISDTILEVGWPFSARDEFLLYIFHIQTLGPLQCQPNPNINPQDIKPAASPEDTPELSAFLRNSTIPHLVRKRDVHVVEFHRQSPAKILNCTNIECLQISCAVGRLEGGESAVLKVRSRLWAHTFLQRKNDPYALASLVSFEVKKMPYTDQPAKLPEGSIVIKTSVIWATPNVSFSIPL
Chain of Recombinant human integrin α8β1 (P05556 21-728): as the sequence (P05556 21-728) above
Chain of Recombinant human integrin αvβ6 (P06756 31-992): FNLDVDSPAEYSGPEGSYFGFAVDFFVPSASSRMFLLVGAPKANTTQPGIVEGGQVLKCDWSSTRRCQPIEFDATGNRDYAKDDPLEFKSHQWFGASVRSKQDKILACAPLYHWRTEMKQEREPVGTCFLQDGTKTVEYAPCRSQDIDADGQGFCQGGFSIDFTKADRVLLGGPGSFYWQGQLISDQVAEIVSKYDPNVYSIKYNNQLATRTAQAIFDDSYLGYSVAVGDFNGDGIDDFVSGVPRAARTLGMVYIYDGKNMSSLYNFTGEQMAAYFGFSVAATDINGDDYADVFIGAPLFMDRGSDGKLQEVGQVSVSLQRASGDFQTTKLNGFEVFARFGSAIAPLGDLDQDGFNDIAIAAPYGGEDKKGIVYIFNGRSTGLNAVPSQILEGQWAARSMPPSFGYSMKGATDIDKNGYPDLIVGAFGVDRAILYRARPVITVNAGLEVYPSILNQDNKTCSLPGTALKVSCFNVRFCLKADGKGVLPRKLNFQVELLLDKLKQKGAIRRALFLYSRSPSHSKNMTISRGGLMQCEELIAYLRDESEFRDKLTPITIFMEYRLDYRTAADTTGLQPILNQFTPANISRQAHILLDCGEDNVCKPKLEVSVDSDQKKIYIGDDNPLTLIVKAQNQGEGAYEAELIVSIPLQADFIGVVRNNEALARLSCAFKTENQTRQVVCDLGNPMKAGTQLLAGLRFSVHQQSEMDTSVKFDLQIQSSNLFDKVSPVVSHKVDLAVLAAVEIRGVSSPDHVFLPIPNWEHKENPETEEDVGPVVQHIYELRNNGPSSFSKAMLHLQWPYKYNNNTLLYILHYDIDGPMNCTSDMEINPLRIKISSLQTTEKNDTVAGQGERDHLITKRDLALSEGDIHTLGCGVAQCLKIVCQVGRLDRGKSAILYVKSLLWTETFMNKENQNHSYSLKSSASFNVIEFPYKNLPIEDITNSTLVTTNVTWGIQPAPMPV
Chain of Recombinant human integrin αvβ6 (P18564 22-707): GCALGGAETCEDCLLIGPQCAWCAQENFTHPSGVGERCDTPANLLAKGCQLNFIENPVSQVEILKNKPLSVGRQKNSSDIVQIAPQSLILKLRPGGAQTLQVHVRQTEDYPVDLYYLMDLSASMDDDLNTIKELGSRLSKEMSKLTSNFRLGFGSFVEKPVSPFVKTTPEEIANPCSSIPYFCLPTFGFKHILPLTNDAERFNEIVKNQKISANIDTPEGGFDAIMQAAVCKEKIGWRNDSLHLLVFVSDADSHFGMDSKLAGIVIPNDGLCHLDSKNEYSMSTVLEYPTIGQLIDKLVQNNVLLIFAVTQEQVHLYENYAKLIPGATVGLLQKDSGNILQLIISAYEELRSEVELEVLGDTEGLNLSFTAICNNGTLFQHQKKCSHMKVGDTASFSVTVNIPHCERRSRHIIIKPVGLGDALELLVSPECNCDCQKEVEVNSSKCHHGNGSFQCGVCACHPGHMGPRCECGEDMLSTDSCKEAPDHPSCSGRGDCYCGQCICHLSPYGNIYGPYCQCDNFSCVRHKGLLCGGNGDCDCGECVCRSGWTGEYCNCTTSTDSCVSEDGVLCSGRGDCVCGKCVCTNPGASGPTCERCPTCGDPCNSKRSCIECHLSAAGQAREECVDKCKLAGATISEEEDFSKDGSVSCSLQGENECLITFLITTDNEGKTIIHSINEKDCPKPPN

Row | Compound | IC50 [1] | IC50 [2] | IC50 [3]
1 | O=C(O)C[C@H](NC(=O)CNC(=O)c1cc(O)cc(NC2=NCC(O)CN2)c1)c1cc(Br)cc(Br)c1 (stereo partly drawn) [Example 1, (3S)-3-(3,5-dibromophenyl)-3-(2-(3-hydroxy-5-((5-hydroxy-1,4,5,6-tetrahydropyrimidin-2-yl)amino)benzamido)acetamido)propanoic acid] | 1 ± 0.5 nM | 1.3 nM | 0.4 nM
2 | O=C(O)C[C@H](NC(=O)CNC(=O)c1cc(O)cc(NC2=NCC(O)CN2)c1)c1cc(Br)cc(C(F)(F)F)c1 (stereo partly drawn) [Example 2, (3S)-3-(3-bromo-5-(trifluoromethyl)phenyl)-3-(2-(3-hydroxy-5-((5-hydroxy-1,4,5,6-tetrahydropyrimidin-2-yl)amino)benzamido)acetamido)propanoic acid] | 0.8 nM | 1.5 nM | 0.3 nM
3 | O=C(O)C[C@H](NC(=O)CNC(=O)c1cc(O)cc(NC2=NCC(O)CN2)c1)c1cc(Cl)cc(C(F)F)c1 (stereo partly drawn) [Example 3, (3S)-3-[3-chloro-5-(difluoromethyl)phenyl)-3-(2-(3-hydroxy-5-((5-hydroxy-1,4,5,6-tetrahydropyrimidin-2-yl)amino)benzamido)acetamido]propanoic acid] | 0.5 nM | 0.9 nM | 0.4 nM
4 | O=C(O)C[C@H](NC(=O)CNC(=O)c1cc(O)cc(NC2=NCC(O)CN2)c1)c1cc(Br)cc(C(F)F)c1 (stereo partly drawn) [Example 4, (3S)-3-[3-bromo-5-(difluoromethyl)phenyl)-3-(2-(3-hydroxy-5-((5-hydroxy-1,4,5,6-tetrahydropyrimidin-2-yl)amino)benzamido)acetamido]propanoic acid] | 0.7 nM | 0.6 nM | 0.4 nM
5 | O=C(O)C[C@H](NC(=O)CNC(=O)c1cc(O)cc(NC2=NCC(O)CN2)c1)c1cc(Cl)cc(C(F)(F)F)c1 (stereo partly drawn) [Example 5, (3S)-3-[3-chloro-5-(trifluoromethyl)phenyl)-3-(2-(3-hydroxy-5-((5-hydroxy-1,4,5,6-tetrahydropyrimidin-2-yl)amino)benzamido)acetamido]propanoic acid] | 0.8 nM | 0.9 nM | 0.5 nM
6 | O=C(O)C[C@H](NC(=O)CNC(=O)c1cc(O)cc(NC2=NCC(O)CN2)c1)c1cc(Cl)cc(Br)c1 (stereo partly drawn) [Example 6, (3S)-3-[3-bromo-5-chloro-phenyl)-3-(2-(3-hydroxy-5-((5-hydroxy-1,4,5,6-tetrahydropyrimidin-2-yl)amino)benzamido)acetamido]propanoic acid] | 0.6 nM | 0.5 nM | 0.4 nM
7 | O=C(O)C[C@H](NC(=O)CNC(=O)c1cncc(NC2=NCC(O)CN2)c1)c1cc(Cl)cc(C(F)(F)F)c1 (stereo partly drawn) [Example 7] | 0.7 nM | 0.6 nM | 0.3 nM
8 | O=C(O)C[C@H](NC(=O)CNC(=O)c1cncc(NC2=NCC(O)CN2)c1)c1cc(Cl)cc(Br)c1 (stereo partly drawn) [Example 8, (3S)-3-(3-bromo-5-chloro-phenyl)-3-[[2-[[5-[(5-hydroxy-1,4,5,6-tetrahydropyrimidin-2-yl)amino]pyridine-3-carbonyl]amino]acetyl]amino]propanoic acid] | 0.6 nM | 0.6 nM | 0.4 nM
9 | O=C(O)C[C@H](NC(=O)CNC(=O)c1cncc(NC2=NCC(O)CN2)c1)c1cc(Br)cc(C(F)(F)F)c1 (stereo partly drawn) [Example 9, (3S)-3-[3-bromo-5-(trifluoromethyl)phenyl]-3-[[2-[[5-[(5-hydroxy-1,4,5,6-tetrahydropyrimidin-2-yl)amino]pyridine-3-carbonyl]amino]acetyl]amino]propanoic acid] | 0.3 nM | 0.5 nM | 0.3 nM
10 | O=C(O)C[C@H](NC(=O)CNC(=O)c1cc(O)cc(NC2=NCC(O)CN2)c1)c1cc(C(F)(F)F)cc(C(F)(F)F)c1 (stereo partly drawn) [Example 10, (3S)-3-[3,5-bis(trifluoromethyl)phenyl)-3-(2-(3-hydroxy-5-((5-hydroxy-1,4,5,6-tetrahydropyrimidin-2-yl)amino)benzamido)acetamido]propanoic acid] | 1 ± 0.4 nM | 1.1 nM | 0.3 ± 0.1 nM
11 | Cc1cc(Br)cc([C@H](CC(=O)O)NC(=O)CNC(=O)c2cc(O)cc(NC3=NCC(O)CN3)c2)c1 (stereo partly drawn) [Example 11, (3S)-3-[3-bromo-5-methyl-phenyl)-3-(2-(3-hydroxy-5-((5-hydroxy-1,4,5,6-tetrahydropyrimidin-2-yl)amino)benzamido)acetamido)propanoic acid] | 0.5 nM | 0.7 nM | 0.5 nM
12 | Cc1cc(Cl)cc([C@H](CC(=O)O)NC(=O)CNC(=O)c2cc(O)cc(NC3=NCC(O)CN3)c2)c1 (stereo partly drawn) [Example 12, (3S)-3-[3-chloro-5-methyl-phenyl)-3-(2-(3-hydroxy-5-((5-hydroxy-1,4,5,6-tetrahydropyrimidin-2-yl)amino)benzamido)acetamido)propanoic acid] | 2 nM | 0.8 nM | 0.6 nM
13 | O=C(O)C[C@H](NC(=O)CNC(=O)c1cc(O)cc(NC2=NCC(O)CN2)c1)c1cc(F)cc(Br)c1 (stereo partly drawn) [Example 13, (3S)-3-[3-bromo-5-fluoro-phenyl)-3-(2-(3-hydroxy-5-((5-hydroxy-1,4,5,6-tetrahydropyrimidin-2-yl)amino)benzamido)acetamido)propanoic acid] | 0.6 nM | 0.6 nM | 0.4 nM
14 | O=C(O)C[C@H](NC(=O)CNC(=O)c1cncc(NC2=NCC(O)CN2)c1)c1cc(Br)cc(Br)c1 (stereo partly drawn) [Example 14, (3S)-3-(3,5-dibromophenyl)-3-[[2-[[5-[(5-hydroxy-1,4,5,6-tetrahydropyrimidin-2-yl)amino]pyridine-3-carbonyl]amino]acetyl]amino]propanoic acid] | 0.6 nM | 0.4 nM | 0.2 nM
15 | O=C(O)C[C@H](NC(=O)CNC(=O)c1cc(O)cc(NC2=NCC(O)CN2)c1)c1cc(Cl)cc(Cl)c1 (stereo partly drawn) [Example 15, (3S)-3-[3,5-dichloro-phenyl)-3-(2-(3-hydroxy-5-((5-hydroxy-1,4,5,6-tetrahydropyrimidin-2-yl)amino)benzamido)acetamido)propanoic acid] | 1 ± 0.3 nM | 1.2 nM | 0.6 nM
